Data taken from patent US20240408170A1, “COMPOSITION FOR DECOMPOSITION OF TRYPSIN OR TMPRSS2” (Riken, priority 2021, published 2024).
One block for each compound: values may come before it.

Assays:
recombinant mouse PRSS2 [1] = target: T1, recombinant mouse PRSS2 (Mus musculus, UniProt P07146); assay: Trypsin decomposition in vitro by bacteria (western blot); format: biochemical; details: for trypsin-decomposing ability of P. clara (1C4) after pretreating rmPRSS2 with protease inhibitor: rmPRSS2 pretreated 30 minutes with inhibitor; for decomposition of rmPRSS2 (western blot): bacteria or culture supernatant incubated with recombinant mouse trypsin
T1 construct: purchased Sino Biological, Inc. 50383-M08H
T1 sequence (P07146 24-246): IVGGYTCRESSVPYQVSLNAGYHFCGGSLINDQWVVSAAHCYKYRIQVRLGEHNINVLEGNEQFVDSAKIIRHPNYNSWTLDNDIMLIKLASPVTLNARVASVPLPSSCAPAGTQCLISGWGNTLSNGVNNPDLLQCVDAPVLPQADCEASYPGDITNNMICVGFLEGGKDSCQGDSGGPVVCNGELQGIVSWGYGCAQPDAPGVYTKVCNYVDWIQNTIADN
Procedure: Mouse faecal samples were suspended and diluted 50-fold with phosphate buffered saline (PBS) to which a protease inhibitor cocktail (Roche) was added. Subsequently, the suspended sample was centrifuged at 15,000×g for 10 minutes at 4° C., and the supernatant was subjected to western blot. Mouse pancreatic tissue was rapidly frozen in liquid nitrogen. Proteins were extracted by TRIzol Reagent (Thermo Fisher Scientific K.K.), and the final protein concentration was adjusted to 4 μg/μL. For SDS-PAGE and blotting, Novex (registered trademark) NuPAGE (registered trademark) SDS-PAGE Gel system (Thermo Fisher Scientific K.K.) and iBlot™ 2 Dry Blotting System (Thermo Fisher Scientific K.K.) were used according to the manufacturer's instructions.
The bacteria cultured overnight were incubated with recombinant mouse trypsin (final concentration: 1 μg/mL) for 1 hour or with human trypsin (final concentration: 20 μg/mL) for 4 hours. Recombinant trypsin isoforms used were as follows: recombinant mouse PRSS2 (50383-M08H, Sino Biological, Inc.), recombinant human PRSS1 (LS-G135640), recombinant human PRSS2 (LS-G20167), and recombinant human PRSS3 (His-tag) (NBP2-52220).
In some experiments, recombinant mouse PRSS2 was first treated with one of the following trypsin inhibitors for 30 minutes before incubation with a P. clara culture solution. AEBSF (Sigma-Aldrich, final concentration: 2 mM), Leupeptin (Sigma-Aldrich, final concentration: 100 μM), and TLCK (Abcam plc., final concentration: 100 μM).
In some experiments, P. clara was cultured overnight in the presence of Tunicamycin (Sigma-Aldrich, final concentration: 10 μg/mL), 2-Fluoro-L-fucose (Cayman Chemical Company, final concentration: 250 μM), or the corresponding DMSO control, before incubation with recombinant mouse PRSS2.
In the experiment of evaluating the effect of Ca^2+, P. clara was cultured in a low Ca^2+ mGAM medium supplemented with or without 1 mM of Ca^2+, before incubation with recombinant mouse PRSS2. In the experiment in which the supernatant of P. clara was used, P. clara cultured overnight was filtered through a sterilization filter unit formed using a PVDF film having a pore size of 0.22 μm.

trypsin = assay: Faecal trypsin activity of GF mice colonized by human microbiota, isolated strain mixtures or P. clara strains; format: in vivo, mouse; details: GF+C#5 mice, antibiotic via drinking
Procedure: Mouse intestinal contents or a mice faecal sample was diluted 500-fold (w/v) with a 0.9% NaCl solution. Human faeces were diluted 200-fold (w/v) with a 0.9% NaCl solution. The diluted solution was vortexed in a mini shaker for 20 minutes at 2,000 rpm, homogenized by pipetting, and then centrifuged at 10,000×g for 15 minutes at 4° C. Subsequently, the supernatant was recovered to measure the trypsin activity by a Trypsin Activity Assay Kit (Colorimetric) for 100 tests (ab102531) according to the manufacturer's protocol. The absorbance at 405 nm was measured in a kinetic mode by using a PerkinElmer 2030 Multilabel Reader.
Human faecal samples were collected at RIKEN and Keio University according to a research protocol approved by the Research Ethics Review Committee. Informed consent was obtained from each subject. A human faecal sample (preserved in 20% (v/v) glycerol) was transferred to an anaerobic chamber, thawed, and then sieved with a 100 μm mesh, transferred to a GF isolator, and orally administered to GF mice by 200 μL/mouse.
For an antibiotic treatment, each solution of 0.5 g/L ampicillin (Nacalai Tesque, Inc.), 0.5 g/L metronidazole (Nacalai Tesque, Inc.), and 1.0 g/L tylosin (Sigma-Aldrich) was produced with autoclaved tap water. The antibiotic solution was given, for 12 days, to mice to which the faecal contents derived from a donor C were orally administered. The antibiotic solution was changed once a week.
The isolated strains except for Phasolactobacterium faecium (3G4) were cultured in an anaerobic chamber at a temperature of 37° C. for 1 to 2 days. Phasolactobacterium faecium was cultured for 2 to 3 days in an Oxoid CM0619 agar plate to which 80 mM sodium succinate was added. The colonies were recovered and resuspended in EGEF. The bacterial density was adjusted based on an OD600 value, and the mixture of the cultured strains was orally administered to GF mice (150 μL/mouse, total bacterial count: about 1 to 2×10^8 CFU).

IgA heavy chain = assay: Ex vivo incubation of mouse faeces at 37° C. for 48 hours, western blot; details: GF faeces mixed with 2-mix+WT faeces, trypsin inhibitor added
Procedure: Mouse faecal samples were suspended and diluted 50-fold with phosphate buffered saline (PBS) to which a protease inhibitor cocktail (Roche) was added. Subsequently, the suspended sample was centrifuged at 15,000×g for 10 minutes at 4° C., and the supernatant was subjected to western blot. Mouse pancreatic tissue was rapidly frozen in liquid nitrogen. Proteins were extracted by TRIzol Reagent (Thermo Fisher Scientific K.K.), and the final protein concentration was adjusted to 4 μg/μL. For SDS-PAGE and blotting, Novex (registered trademark) NuPAGE (registered trademark) SDS-PAGE Gel system (Thermo Fisher Scientific K.K.) and iBlotTM 2 Dry Blotting System (Thermo Fisher Scientific K.K.) were used according to the manufacturer's instructions. The antibodies used are as follows. A rabbit anti-mouse PRSS2 antibody (Cosmo Bio Co., Ltd.), a rabbit anti-mouse HSP90 antibody (#4877, Cell Signaling Technology, Inc.), a rabbit anti-human PRSS2 antibody (LS-B15726, LSBio), a rabbit anti-human PRSS1 antibody (LS-331381, LSBio), a rabbit anti-mouse TMPRSS2 antibody (LS-C373022, LSBio, against the sequence of the protease domain), a rabbit anti-6-His antibody ([…]-[…], Bethyl Laboratories, Inc.), a goat anti-mouse IgA a chain antibody (HRP) (ab97235, Abcam plc.), a rat anti-mouse κ chain antibody (HRP) (ab99632, Abcam plc.), a rabbit anti-mouse CELA3b antibody (OACD03205, Aviva Systems Biology Corporation), an anti-rabbit IgG antibody (HRP) (#7074, Cell Signaling Technology, Inc.), and a rabbit anti-mouse Reg3 antibody (51153-[…], Sino Biological, Inc.).

recombinant mouse PRSS2 [2] = target: T1, recombinant mouse PRSS2; assay: Binding of Alexa Fluor 488-labeled rmPRSS2 to the surface of bacteria (confocal microscope)
Procedure: Recombinant mouse PRSS2 was labeled with Alexa Fluor™ 488 using an Alexa Fluor™ 488 Antibody Labeling Kit (Δ20181, Thermo Fisher Scientific K.K.), and was pretreated with an AEBSF inhibitor (150 μg/mL rmPRSS2 with 20 mM AEBSF).
Mouse PRSS2 labeled with Alexa Fluor™ 488 was incubated in an anaerobic chamber for 20 minutes with bacteria cultured at a final concentration of 5 μg/mL. The mixture was centrifuged, washed once with PBS, and then resuspended in PBS. A Leica TCS SP8 confocal microscope was used for capturing a confocal image.

Compound: NCCc1ccc(S(=O)(=O)F)cc1 [AEBSF, reference compound]
trypsin-decomposing ability of P. clara (1C4) after pretreating rmPRSS2 with protease inhibitor (recombinant mouse PRSS2 [1]): lost

Compound: CC1(C)S[C@@H]2[C@H](NC(=O)[C@H](N)c3ccccc3)C(=O)N2[C@H]1C(=O)O [Amp, Ampicillin]
faecal trypsin activity (trypsin): more decreased

Compound: Cc1ncc([N+](=O)[O-])n1CCO [MNZ, metronidazole]
faecal trypsin activity (trypsin): no decrease

Compound: Cc1ccc(S(=O)(=O)N[C@@H](CCCCN)C(=O)CCl)cc1 [TLCK, reference compound]
decomposition of IgA heavy chain in mixed faeces (IgA heavy chain): inhibited the decomposition of the IgA heavy chain
trypsin-decomposing ability of P. clara (1C4) after pretreating rmPRSS2 with protease inhibitor (recombinant mouse PRSS2 [1]): lost

Compound: CC[C@H]1OC(=O)C[C@@H](O)[C@H](C)[C@@H](O[C@@H]2O[C@H](C)[C@@H](O[C@H]3C[C@@](C)(O)[C@@H](O)[C@H](C)O3)[C@H](N(C)C)[C@H]2O)[C@@H](CC=O)C[C@@H](C)C(=O)/C=C/C(C)=C/[C@@H]1CO[C@@H]1O[C@H](C)[C@@H](O)[C@@H](OC)[C@H]1OC [Tyl, tylosin]
faecal trypsin activity (trypsin): no decrease

Compound: CC(=O)N[C@@H](CC(C)C)C(=O)N[C@@H](CC(C)C)C(=O)N[C@H](C=O)CCCNC(=N)N [leupeptin, reference compound]
trypsin-decomposing ability of P. clara (1C4) after pretreating rmPRSS2 with protease inhibitor (recombinant mouse PRSS2 [1]): lost

decomposition of rmPRSS2 (western blot) (recombinant mouse PRSS2 [1]): effect of reducing trypsin
Compound: Paraprevotella clara [P237E3b]

decomposition of rmPRSS2 (western blot) (recombinant mouse PRSS2 [1]): effect of reducing trypsin
Compound: Paraprevotella clara [P322B5]

decomposition of rmPRSS2 (western blot) (recombinant mouse PRSS2 [1]): potent trypsin-reducing ability
Compound: Paraprevotella xylaniphila [P. xylaniphila (JCM 14860) strain]

Compound: Prevotella copri [reference compound]
decomposition of rmPRSS2 (western blot) (recombinant mouse PRSS2 [1]): did not decrease the trypsin activity

Compound: Prevotella denticola [reference compound]
binding of rmPRSS2 to the surface of bacteria (recombinant mouse PRSS2 [2]): no accumulation of trypsin was observed
decomposition of rmPRSS2 (western blot) (recombinant mouse PRSS2 [1]): did not decrease the trypsin activity

decomposition of rmPRSS2 (western blot) (recombinant mouse PRSS2 [1]): had a trypsin-decomposing activity
Compound: Prevotella muris [Prevotella muris strain]

Compound: Prevotella oulorum [reference compound]
binding of rmPRSS2 to the surface of bacteria (recombinant mouse PRSS2 [2]): no accumulation of trypsin was observed
decomposition of rmPRSS2 (western blot) (recombinant mouse PRSS2 [1]): did not decrease the trypsin activity

decomposition of rmPRSS2 (western blot) (recombinant mouse PRSS2 [1]): had a trypsin-decomposing activity
Compound: Prevotella rara [Prevotella rara (MSP 0081) strain]

decomposition of rmPRSS2 (western blot) (recombinant mouse PRSS2 [1]): had a trypsin-decomposing activity
Compound: Prevotella rodentium [Prevotella rodentium strain]

Compound: Prevotella stercorea [reference compound]
decomposition of rmPRSS2 (western blot) (recombinant mouse PRSS2 [1]): did not decrease the trypsin activity

Compound: tunicamycin [reference compound]
binding of rmPRSS2 to the surface of P. clara treated with sugar chain synthesis inhibitor (recombinant mouse PRSS2 [2]): no accumulation of trypsin on the surface
decomposition of rmPRSS2 by P. clara pretreated with sugar chain synthesis inhibitor (recombinant mouse PRSS2 [1]; P. clara cultured overnight with inhibitor): no decomposition of trypsin was observed
